Source: ChEMBL document CHEMBL1201862, “PubChem BioAssay data set” (2004)
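Method: 48-hour compound exposure of cells in 96-well plates, five concentrations, linear interpolation of endpoints. GI50 marks 50% less growth.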 Calls of active or inactive are those of the source. Cut-off read from the data, not from the text of the source: active = GI50 up to about 1.1 µM and inactive = higher.

Columns and labels:
Assay in all cases: DTP human tumour cell line panel, 48 h
SK-MEL-2 = test system: SK-MEL-2
SW-620 = test system: SW-620
HL-60 = test system: HL-60
UACC-257 = test system: UACC-257
KM12 = test system: KM12
HCT-15 = test system: HCT-15
U-251 = test system: U-251
EKVX = test system: EKVX
LOX IMVI = test system: LOX IMVI
SNB-75 = test system: SNB-75
HCC 2998 = test system: HCC 2998
TK-10 = test system: TK-10
Malme-3M = test system: Malme-3M
HT-29 = test system: HT-29
NCI-H226 = test system: NCI-H226
NCI-H460 = test system: NCI-H460
786-0 = test system: 786-0
SR = test system: SR
OVCAR-3 = test system: OVCAR-3

Row | Structure (SMILES) | GI50 (SK-MEL-2) | GI50 (SW-620) | GI50 (HL-60) | GI50 (UACC-257) | GI50 (KM12) | GI50 (HCT-15) [µM] | GI50 (U-251) | GI50 (EKVX) | GI50 (LOX IMVI) | GI50 (SNB-75) | GI50 (HCC 2998) | GI50 (TK-10) | GI50 (Malme-3M) | GI50 (HT-29) | GI50 (NCI-H226) | GI50 (NCI-H460) | GI50 (786-0) | GI50 (SR) | GI50 (OVCAR-3)
1 | Cc1nn(-c2ccccc2)c(S)c1C(=O)c1ccccc1 | > 100 µM (inactive) | 32.6 µM (inactive) | 32.1 µM (inactive) | 76.2 µM (inactive) | 33 µM (inactive) | 34.6 | > 100 µM (inactive) | 18.6 µM (inactive) | 53.6 µM (inactive) | 42.8 µM (inactive) | 29.8 µM (inactive) | 31.9 µM (inactive) | > 100 µM (inactive) | 10 µM (inactive) | – | – | – | – | –
2 | CC12Oc3ccc4ccccc4c3CC1Cc1c(ccc3ccccc13)O2 (stereo not drawn) | 48 µM (inactive) | > 100 µM (inactive) | > 100 µM (inactive) | 50.4 µM (inactive) | > 100 µM (inactive) | – | 50.6 µM (inactive) | > 100 µM (inactive) | 56.2 µM (inactive) | 7.08 µM (inactive) | > 100 µM (inactive) | 46.2 µM (inactive) | 3.44 µM (inactive) | > 100 µM (inactive) | 23 µM (inactive) | 82.4 µM (inactive) | 40.2 µM (inactive) | – | –
3 | COc1ccc(/C=N/N=C(\N)NO)c(OC)c1C | 22.3 µM (inactive) | 22.8 µM (inactive) | – | 22.2 µM (inactive) | 29.2 µM (inactive) | 9.14 | 45.1 µM (inactive) | 4.56 µM (inactive) | 4.81 µM (inactive) | – | 7.08 µM (inactive) | – | 16.3 µM (inactive) | 12.9 µM (inactive) | 15.2 µM (inactive) | 15.6 µM (inactive) | 16.1 µM (inactive) | 28.2 µM (inactive) | 7.96 µM (inactive)
4 | C/C=C1\CCC2c3[nH]c4ccccc4c3CCN2C1 (stereo not drawn) | > 100 µM (inactive) | > 100 µM (inactive) | 43.3 µM (inactive) | – | > 100 µM (inactive) | – | > 100 µM (inactive) | > 100 µM (inactive) | – | 61.7 µM (inactive) | – | > 100 µM (inactive) | 0.174 µM (active) | 40 µM (inactive) | 31 µM (inactive) | > 100 µM (inactive) | 70.1 µM (inactive) | 55.5 µM (inactive) | 35.8 µM (inactive)
5 | CSc1nc2c(c(O)c(C)c(=O)n2C2OCC(OC(C)=O)C(OC(C)=O)C2OC(C)=O)c(=O)n1C (stereo not drawn) | > 100 µM (inactive) | > 100 µM (inactive) | > 100 µM (inactive) | > 100 µM (inactive) | > 100 µM (inactive) | > 100 | > 100 µM (inactive) | – | > 100 µM (inactive) | > 100 µM (inactive) | – | > 100 µM (inactive) | > 100 µM (inactive) | > 100 µM (inactive) | > 100 µM (inactive) | > 100 µM (inactive) | > 100 µM (inactive) | > 100 µM (inactive) | > 100 µM (inactive)
6 | Cc1cc2c(C)n(Cc3ccc(Cl)cc3Cl)nc2c(C(=O)O)c1C | > 100 µM (inactive) | > 100 µM (inactive) | > 100 µM (inactive) | > 100 µM (inactive) | – | 91.2 | > 100 µM (inactive) | > 100 µM (inactive) | > 100 µM (inactive) | > 100 µM (inactive) | > 100 µM (inactive) | > 100 µM (inactive) | > 100 µM (inactive) | > 100 µM (inactive) | > 100 µM (inactive) | 96.4 µM (inactive) | > 100 µM (inactive) | – | > 100 µM (inactive)
7 | O=C(CC1C(=O)c2ccccc2C1=C1C(=O)c2ccccc2C1=O)c1ccccc1 (stereo not drawn) | > 100 µM (inactive) | > 100 µM (inactive) | 44.6 µM (inactive) | > 100 µM (inactive) | > 100 µM (inactive) | 64.4 | > 100 µM (inactive) | > 100 µM (inactive) | > 100 µM (inactive) | > 100 µM (inactive) | > 100 µM (inactive) | > 100 µM (inactive) | > 100 µM (inactive) | > 100 µM (inactive) | > 100 µM (inactive) | > 100 µM (inactive) | 50.6 µM (inactive) | – | –
8 | O=C(O)C1CC2CC(=O)C1C2 (stereo not drawn) | > 100 µM (inactive) | > 100 µM (inactive) | > 100 µM (inactive) | > 100 µM (inactive) | > 100 µM (inactive) | – | > 100 µM (inactive) | > 100 µM (inactive) | > 100 µM (inactive) | > 100 µM (inactive) | – | > 100 µM (inactive) | > 100 µM (inactive) | > 100 µM (inactive) | > 100 µM (inactive) | > 100 µM (inactive) | > 100 µM (inactive) | > 100 µM (inactive) | > 100 µM (inactive)
9 | CCC1CC(C)=CCN1S(=O)(=O)c1ccc(C)cc1 (stereo not drawn) | 11 µM (inactive) | > 10 µM (inactive) | 3.61 µM (inactive) | 25.9 µM (inactive) | 23.4 µM (inactive) | 6.52 | – | 31.8 µM (inactive) | 15.9 µM (inactive) | 13.9 µM (inactive) | – | – | 17.3 µM (inactive) | 20 µM (inactive) | 28.2 µM (inactive) | 21.1 µM (inactive) | 33.5 µM (inactive) | 5.66 µM (inactive) | 17.4 µM (inactive)
10 | Cc1ccccc1C1SCc2nc3ccccc3n21 (stereo not drawn) | > 100 µM (inactive) | – | 1.92 µM (inactive) | 4.26 µM (inactive) | > 100 µM (inactive) | – | > 100 µM (inactive) | > 100 µM (inactive) | – | > 100 µM (inactive) | > 100 µM (inactive) | > 100 µM (inactive) | 44.9 µM (inactive) | – | 60.3 µM (inactive) | – | > 100 µM (inactive) | – | > 100 µM (inactive)
11 | O=C(Nc1ccc(Cl)cc1)C1C(=O)C(=O)N(c2ccc(Cl)cc2)C1=O (stereo not drawn) | 38.6 µM (inactive) | > 100 µM (inactive) | > 100 µM (inactive) | – | > 100 µM (inactive) | 35.9 | 58.6 µM (inactive) | > 100 µM (inactive) | > 100 µM (inactive) | > 100 µM (inactive) | – | > 100 µM (inactive) | > 100 µM (inactive) | 74.8 µM (inactive) | > 100 µM (inactive) | > 100 µM (inactive) | > 100 µM (inactive) | > 100 µM (inactive) | > 100 µM (inactive)
12 | NN/C(Cc1ccccc1)=N/NC(N)=S | > 100 µM (inactive) | > 100 µM (inactive) | 63 µM (inactive) | > 100 µM (inactive) | 96.4 µM (inactive) | 72.6 | > 100 µM (inactive) | 97.3 µM (inactive) | 82.6 µM (inactive) | > 100 µM (inactive) | > 100 µM (inactive) | > 100 µM (inactive) | > 100 µM (inactive) | > 100 µM (inactive) | > 100 µM (inactive) | > 100 µM (inactive) | > 100 µM (inactive) | – | –
13 | COc1ccc(OC)c(/C=C/C(=O)C(C)(C)C)c1 | > 10 µM (inactive) | 14.5 µM (inactive) | 14.7 µM (inactive) | – | 21.1 µM (inactive) | 20.1 | 20 µM (inactive) | 16.4 µM (inactive) | 21.1 µM (inactive) | 26 µM (inactive) | 23.2 µM (inactive) | 26.4 µM (inactive) | 17.9 µM (inactive) | 27.4 µM (inactive) | 17.4 µM (inactive) | 34.8 µM (inactive) | 19.5 µM (inactive) | – | 23.3 µM (inactive)
14 | CC1=NNC(=O)C1C1CC(c2c[nH]c3ccccc23)=NN=C1Cl (stereo not drawn) | > 100 µM (inactive) | 63.5 µM (inactive) | 20 µM (inactive) | > 100 µM (inactive) | 21.9 µM (inactive) | 35.8 | 43.6 µM (inactive) | 70.8 µM (inactive) | 33.3 µM (inactive) | 75 µM (inactive) | – | > 100 µM (inactive) | > 100 µM (inactive) | 40.9 µM (inactive) | 74.1 µM (inactive) | 34.6 µM (inactive) | 49.9 µM (inactive) | – | 62.1 µM (inactive)
15 | c1ccc([B-]2(c3ccccc3)NCCCO2)cc1 | 89.9 µM (inactive) | 49.5 µM (inactive) | > 100 µM (inactive) | 49.9 µM (inactive) | 91.2 µM (inactive) | 31.8 | > 100 µM (inactive) | 97.5 µM (inactive) | 59.4 µM (inactive) | – | – | 43.2 µM (inactive) | 48.9 µM (inactive) | > 100 µM (inactive) | 31 µM (inactive) | 72.8 µM (inactive) | 56.9 µM (inactive) | 44.9 µM (inactive) | 35.1 µM (inactive)
16 | O=C1CCC2(c3ccc(F)cc3)Nc3ccccc3N12 (stereo not drawn) | > 100 µM (inactive) | > 100 µM (inactive) | > 100 µM (inactive) | > 100 µM (inactive) | > 100 µM (inactive) | > 100 | > 100 µM (inactive) | > 100 µM (inactive) | > 100 µM (inactive) | 63.7 µM (inactive) | > 100 µM (inactive) | > 100 µM (inactive) | > 100 µM (inactive) | > 100 µM (inactive) | > 100 µM (inactive) | > 100 µM (inactive) | > 100 µM (inactive) | – | > 100 µM (inactive)
17 | O=c1ccn(/C=C/C(O)C(O)CO)c(=O)[nH]1 (stereo not drawn) | > 100 µM (inactive) | > 100 µM (inactive) | > 100 µM (inactive) | > 100 µM (inactive) | 21.7 µM (inactive) | > 100 | > 100 µM (inactive) | > 100 µM (inactive) | > 100 µM (inactive) | > 100 µM (inactive) | > 100 µM (inactive) | > 100 µM (inactive) | > 100 µM (inactive) | > 100 µM (inactive) | > 100 µM (inactive) | – | > 100 µM (inactive) | – | > 100 µM (inactive)
